Test system: lymphocytes and myeloid cells
Assay: Humanized mice experiments LYDEP 43 and 45, lymphoid versus myeloid cells (FSC vs SSC)
Format: in vivo, mouse
Protocol: Female huNOG-EXL mice (n=6) were obtained from Taconic Bioscience (Germantown, NY). Female huCD34-NCG mice (n=8) were obtained from Charles River (Wilmington, MA). Mice from both facilities were acclimated to laboratory conditions for at least 5-6 days.
After first (03/01/2021) and second dose 1 week later (03/08/2021), when mice reached predetermined time point, they were bled up to 70 μL of blood/mouse via cheek puncture. The blood was analyzed via flow cytometry. After third dose 28 days after the previous dose (on Apr. 5, 2021), when mice reached the study time point, they were euthanized under standard operating procedure summarized here: Mice were anesthetized with isoflurane gas.
All flow cytometry was performed in house. Blood, spleen, thymus, and bone marrow were processed via standard staining protocol for flow cytometry. MACSQUANT 16 was used for flow cytometry. Antibody panels slightly varied between first, second and third dose. Markers in the flow panel after first dose analysis included Live/Dead, hCD45, mCD45, hCD56, hTCRgd, hCD3, hCD8, hCD16, hCD19, hCD14. Markers in the flow panel after second dose included all the above, plus hTCRab and hiTCR. In the blood analysis after second dose, 7AAD, CD14 and CD19 were included together in a dump channel. […] For the third dose panel design, when full sac was performed, all markers mentioned above were assigned unique channels to avoid overlap, but TCRab was not included in the final panel due to open channel limitations.
For cheek bleeds, 70 ul of blood was collected in EDTA coated microtainer and proceeded for immunostaining. […] Blood was stained for live dead marker for 10 min at Room temperature and then for the surface antibodies mentioned above for 20 minutes at room temperature in dark. RBCs were lysed with BD FACS lysing buffer and washed with DPBS and resuspended in 300 ul DBPS. 250 ul of sample was run on MACSquant 16 flow cytometer.

[1] = mouse M88, after a first dose (32 mg/kg)

SMILES: C[C@@H]1C[C@H]2[C@@H]3CCC4=CC(=O)C=C[C@]4(C)[C@@]3(F)[C@@H](O)C[C@]2(C)[C@@]1(O)C(=O)COP(=O)(O)O [AVM0703, dexamethasone sodium phosphate]
- % of total mouse WBCs that were lymphoid cells, range (AVM0703 treated humanized mice): 2%-20.4%
- % of total mouse WBCs that were lymphoid cells, average (AVM0703 treated humanized mice (Placebo 12.7%)): 10.62%
- myeloid cell production (humanized mice that largely lack myeloid compartments): induced myeloid cell production
- human lymphocytes, % of total human WBCs (mouse M01, after a first dose): 67%
- mouse lymphocytes, % of total WBCs (mouse M01, after a first dose): 6.7%
- total lymphocytes, % of total WBCs (mouse M01, after a first dose): 35%
- human lymphocytes, % of total human WBCs (mouse M03, after a first dose): 47%
- mouse lymphocytes, % of total WBCs (mouse M03, after a first dose): 23.7%
- total lymphocytes, % of total WBCs (mouse M03, after a first dose): 40%
- human lymphocytes, % of total human WBCs (mouse M05, after a first dose): 50.1%
- mouse lymphocytes, % of total WBCs (mouse M05, after a first dose): 2.0%
- total lymphocytes, % of total WBCs (mouse M05, after a first dose): 20.9%
- human lymphocytes, % of total human WBCs (mouse M07, after a first dose): 58.2%
- mouse lymphocytes, % of total WBCs (mouse M07, after a first dose): 20.4%
- total lymphocytes, % of total WBCs (mouse M07, after a first dose): 41.9%
- human lymphocytes, % of total human WBCs (mouse M10, after a first dose): 37.5%
- mouse lymphocytes, % of total WBCs (mouse M10, after a first dose): 5.2%
- total lymphocytes, % of total WBCs (mouse M10, after a first dose): 28.1%
- human lymphocytes, % of total human WBCs [1]: 58%
- mouse lymphocytes, % of total WBCs [1]: 5.7%
- total lymphocytes, % of total WBCs [1]: 32%
